Measurements reported in patent publication US11001569B2, “6-membered heteroaromatic substituted cyanoindoline derivatives as NIK inhibitors” (Janssen Pharmaceutica NV, priority 2016, dated 2021).
“And” between values parts separate entries of the source, which are not always exact repeats. Equal values may be shown once.

Assays:
[1] = molecular target: recombinant human NF-kappaB-inducing Kinase (NIK/MAP3K14) (Homo sapiens, UniProt Q99558); test: Inhibition of auto-phosphorylation of recombinant human NIK/MAP3K14 activity (AlphaScreen); type: biochemical; conditions: 25 microM ATP, averaged over all measurements on all batches
Experimental: Pharmacological Part Biological assay A Inhibition of auto-phosphorylation of recombinant human NF-kappaB-inducing Kinase (NIK/MAP3K14) Activity (AlphaScreen®)
NIK/MAP3K14 auto-phosphorylation activity was measured using the AlphaScreen® (αscreen) format (Perkin Elmer). All compounds tested were dissolved in dimethyl sulfoxide (DMSO) and further dilutions were made in assay buffer. Final DMSO concentration was 1% (v/v) in assays. Assay buffer was 50 mM Tris pH 7.5 containing 1 mM EGTA (ethylene glycol tetraacetic acid), 1 mM DTT (dithiothreitol), 0.1 mM Na3VO4, 5 mM MgCl2, 0.01% Tween® 20. Assays were carried out in 384 well Alphaplates (Perkin Elmer). […] Incubations were initiated by addition of GST-tagged NIK/MAP3K14 enzyme, carried out for 1 h at 25° C. and terminated by addition of stop buffer containing anti-phospho-IKK Ser176/180 antibody. Protein A Acceptor and Glutathione-Donor beads were added before reading using an EnVision® Multilabel Plate Reader (Perkin Elmer). Signal obtained in the wells containing blank samples was subtracted from all other wells and IC50's were determined by fitting a sigmoidal curve to % inhibition of control versus Log10 compound concentration.

[2] = system: KMS12-BM (NIK WT) multiple myeloma cells; test: Antiproliferative activity on KMS12-BM multiple myeloma cells (CellTiter-Glo); type: cell-based, human; conditions: Homo sapiens, KMS-12-BM, 96 h, 96 hr treatment, averaged values, read-out: KMS-12 Proliferation inhibition (IC50 (nM))
Experimental: (§1) Determination of Antiproliferative Activity on JJN-3 (NIK Translocated) and KMS12-BM (NIK WT) Multiple Myeloma Cells
(§2) All compounds tested were dissolved in DMSO and further dilutions were made in culture medium. Final DMSO concentration was 0.3% (v/v) in cell proliferation assays. Viability was assessed using CellTiter-Glo cell viability assay kit (Promega). […] Cells were routinely kept as suspension cells at 37° C. in a humidified 5% CO2 atmosphere. Cells were passaged at a seeding density of 0.2×10^6/ml twice a week. Cells were seeded in black tissue culture treated 96-well plates (Perkin Elmer). Densities used for plating ranged from 15000 (JJN3) to 20000 (KMS12BM) cells per well in a total volume of 135 μl medium. Drugs and/or solvents were added (15 μl) to a final volume of 150 μl. Following 96 hr of treatment, plates were removed from the incubator and allowed to equilibrate to room temperature for approx 10 min. 75 μl CellTiter-Glo reagent was added to each well that was then covered (Perkin Elmer Topseal) and shaken on plate shaker for 10 min. Luminescence was measured on a HTS Topcount (Perkin Elmer). […] For initial screening purposes, compounds were tested using a 9 point dilution curve (serial 1:3 dilutions). For each experiment, controls (containing no drug) and a blank incubation (containing cells read at the time of compound addition) were run in parallel. The blank value was subtracted from all control and sample values. For each sample, the mean value for cell growth (in relative light units) was expressed as a percentage of the mean value for cell growth of the control.

[3] = system: JJN-3 (NIK translocated) multiple myeloma cells; test: Antiproliferative activity on JJN-3 multiple myeloma cells (CellTiter-Glo); type: cell-based, human; conditions: Homo sapiens, JJN-3, 96 h, JJN-3 (NIK translocated) cells, 96 hr treatment, averaged values, read-out: JJN-3 Proliferation inhibition (IC50 (nM))
Experimental: as §1, §2

Sequence of recombinant human NF-kappaB-inducing Kinase (NIK/MAP3K14) (Q99558 whole entry): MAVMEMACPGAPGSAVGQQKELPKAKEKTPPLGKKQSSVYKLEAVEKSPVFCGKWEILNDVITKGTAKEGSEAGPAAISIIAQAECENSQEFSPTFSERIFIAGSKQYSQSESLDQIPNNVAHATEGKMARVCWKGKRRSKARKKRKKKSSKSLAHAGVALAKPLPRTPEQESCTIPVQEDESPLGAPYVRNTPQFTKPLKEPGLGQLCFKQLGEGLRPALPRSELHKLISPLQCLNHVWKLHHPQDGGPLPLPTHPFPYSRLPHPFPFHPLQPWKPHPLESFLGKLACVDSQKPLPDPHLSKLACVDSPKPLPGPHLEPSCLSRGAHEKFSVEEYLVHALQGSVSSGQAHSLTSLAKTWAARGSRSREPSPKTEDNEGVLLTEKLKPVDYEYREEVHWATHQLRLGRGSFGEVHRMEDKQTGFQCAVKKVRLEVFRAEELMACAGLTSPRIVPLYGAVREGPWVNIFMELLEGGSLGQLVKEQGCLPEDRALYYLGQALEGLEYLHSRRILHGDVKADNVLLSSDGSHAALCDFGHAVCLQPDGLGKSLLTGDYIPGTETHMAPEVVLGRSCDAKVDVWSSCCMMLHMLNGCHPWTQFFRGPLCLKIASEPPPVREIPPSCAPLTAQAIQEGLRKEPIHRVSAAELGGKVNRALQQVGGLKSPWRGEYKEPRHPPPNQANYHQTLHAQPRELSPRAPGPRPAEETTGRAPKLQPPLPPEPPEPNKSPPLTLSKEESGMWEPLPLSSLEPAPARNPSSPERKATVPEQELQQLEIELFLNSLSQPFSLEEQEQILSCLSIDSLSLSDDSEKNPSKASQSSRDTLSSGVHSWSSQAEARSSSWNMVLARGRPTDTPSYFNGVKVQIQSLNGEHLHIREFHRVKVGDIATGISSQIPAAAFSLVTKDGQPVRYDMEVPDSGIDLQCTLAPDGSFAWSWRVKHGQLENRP

COCCNc1nc(OC)c(Nc2nccc(-c3cc(C#N)c4c(c3)[C@](C)(CO)CN4)n2)cc1Cl [Compound 11]
melting point: 236 °C | IC50 [1]: 10.5 nM | IC50 [2]: > 10000 nM | IC50 [3]: ~347 nM

COCCNc1nc(OC)c(Nc2nccc(-c3cc(C#N)c4c(c3)[C@@](C)(CO)CN4)n2)cc1Cl [Compound 10]
melting point: 231 °C | IC50 [1]: 8.5 nM | IC50 [2]: > 10000 nM | IC50 [3]: 58 nM

COc1ncc(Cl)cc1Nc1nccc(-c2cc(C#N)c3c(c2)[C@@](C)(CO)CN3)n1 [Compound 14]
melting point: 266 °C | IC50 [1]: 5.5 nM | IC50 [2]: > 10000 nM | IC50 [3]: 372 nM

CC(C)OCCOc1ncccc1Nc1nccc(-c2cc(C#N)c3c(c2)[C@@](C)(CO)CN3)n1 [Compound 19]
melting point: 154 °C | IC50 [1]: 14.5 nM | IC50 [2]: > 10000 nM | IC50 [3]: 912 nM

COc1ncccc1Nc1nccc(-c2cc(C#N)c3c(c2)C(C)(COCCNC(C)C)CN3)n1 (centres unmarked) [Compound 116]
melting point: 95 °C | IC50 [1]: 85.1 nM | IC50 [2]: > 10000 nM | IC50 [3]: 2040 nM

COc1ncc(Cl)cc1Nc1nccc(-c2cc(C#N)c3c(c2)C(C)(COCCN2CCCC2)CN3)n1 (centres unmarked) [Compound 120]
melting point: 152 °C | IC50 [1]: 79.4 nM | IC50 [2]: 1230 nM | IC50 [3]: 631 nM

COc1ncccc1Nc1nccc(-c2cc(C#N)c3c(c2)C(C)(CNC2CC2)CN3)n1 (centres unmarked) [Compound 110]
melting point: 116 °C | IC50 [1]: 33.9 nM | IC50 [2]: > 10000 nM | IC50 [3]: 1860 nM

COCCCn1cccc(Nc2nccc(-c3cc(C#N)c4c(c3)[C@@](C)(CO)CN4)n2)c1=O [Compound 10i]
melting point: 192 °C | IC50 [1]: 3 nM | IC50 [2]: 4790 nM | IC50 [3]: 339 nM

COCCOc1nc(C(F)(F)F)ccc1Nc1nccc(-c2cc(C#N)c3c(c2)[C@@](C)(CO)CN3)n1 [Compound 53]
melting point: 190 °C | IC50 [1]: 95.5 nM | IC50 [2]: > 10000 nM | IC50 [3]: 3470 nM

CC(C)Oc1ncccc1Nc1nccc(-c2cc(C#N)c3c(c2)C(C)(CO)CN3)n1 (centres unmarked) [Compound 18]
melting point: 140 °C | IC50 [1]: 9.1 nM | IC50 [2]: > 10000 nM | IC50 [3]: 776 nM

COCCOc1nc(C)ncc1Nc1nccc(-c2cc(C#N)c3c(c2)[C@@](C)(CO)CN3)n1 [Compound 136]
melting point: 231 °C | IC50 [1]: 18.2 nM | IC50 [2]: > 10000 nM | IC50 [3]: 2000 nM

Cc1ncc(Cl)cc1Nc1nccc(-c2cc(C#N)c3c(c2)C(C)(CO)CN3)n1 (centres unmarked) [Compound 4]
melting point: 277 °C and 280 °C | IC50 [1]: 3.6 nM | IC50 [2]: ~7410 nM | IC50 [3]: 97 nM

COc1ncccc1Nc1ncc(F)c(-c2cc(C#N)c3c(c2)C(C)(CO)CN3)n1 (centres unmarked) [Compound 101]
melting point: > 250 °C | IC50 [1]: 2.2 nM | IC50 [2]: 2460 nM | IC50 [3]: 204 nM

CC1(C)CNc2c(C#N)cc(-c3ccnc(Nc4cnc(N5CCOCC5)nc4)n3)cc21 [Compound 125]
melting point: 270 °C | IC50 [1]: 9.8 nM | IC50 [2]: 891 nM | IC50 [3]: 166 nM

CCOC(=O)c1ccc(Nc2nccc(-c3cc(C#N)c4c(c3)C(C)(CO)CN4)n2)cn1 (centres unmarked) [Compound 9]
melting point: 238 °C | IC50 [1]: 5.3 nM | IC50 [2]: 427 nM | IC50 [3]: 219 nM

CC1(CO)CNc2c(C#N)cc(-c3ccnc(Nc4cccnc4C(F)(F)F)n3)cc21 (centres unmarked) [Compound 31]
melting point: 202 °C | IC50 [1]: 9.8 nM | IC50 [2]: > 10000 nM | IC50 [3]: 2000 nM

COCCNc1ccc(Nc2nccc(-c3cc(C#N)c4c(c3)C(C)(CO)CN4)n2)c(OC)n1 (centres unmarked) [Compound 12]
melting point: 120 °C | IC50 [1]: 12.9 nM | IC50 [2]: > 10000 nM | IC50 [3]: 589 nM

C[C@]1(CO)CNc2c(C#N)cc(-c3ccnc(Nc4cccnc4OC[C@@H]4CCCO4)n3)cc21 [Compound 42]
melting point: 154 °C | IC50 [1]: 6.2 nM | IC50 [2]: > 10000 nM | IC50 [3]: 347 nM

CC(C)Oc1ncc(Cl)cc1Nc1nccc(-c2cc(C#N)c3c(c2)[C@@](C)(CO)CN3)n1 [Compound 30]
melting point: 195 °C | IC50 [1]: 51.3 nM | IC50 [2]: > 10000 nM | IC50 [3]: 1260 nM

COc1ncc(Cl)cc1Nc1ncc(F)c(-c2cc(C#N)c3c(c2)C(C)(CO)CN3)n1 (centres unmarked) [Compound 102]
melting point: > 250 °C | IC50 [1]: 6.5 nM | IC50 [2]: > 10000 nM | IC50 [3]: 1580 nM

CC1(CO)CNc2c(C#N)cc(-c3nc(Nc4cccnc4OC4CCOCC4)ncc3F)cc21 (centres unmarked) [Compound 107]
melting point: 226 °C | IC50 [1]: 4.8 nM | IC50 [2]: 562 nM | IC50 [3]: 309 nM

COc1nc(C)ncc1Nc1nccc(-c2cc(C#N)c3c(c2)[C@@](C)(CO)CN3)n1 [Compound 129]
melting point: 223 °C | IC50 [1]: 1.8 nM | IC50 [2]: > 10000 nM | IC50 [3]: 562 nM

CCOc1ncc(Cl)cc1Nc1nccc(-c2cc(C#N)c3c(c2)[C@@](C)(CO)CN3)n1 [Compound 35]
melting point: 220 °C | IC50 [1]: 15.9 nM | IC50 [2]: > 10000 nM | IC50 [3]: 794 nM

COc1ncc(Cl)cc1Nc1nccc(-c2cc(C#N)c3c(c2)C(C)(CO)CN3)n1 (centres unmarked) [Compound 3]
melting point: 254 °C | IC50 [1]: 8.3 nM | IC50 [2]: > 10000 nM | IC50 [3]: 81 nM

COc1ncccc1Nc1nccc(-c2cc(C#N)c3c(c2)C(C)(CNCCS(C)(=O)=O)CN3)n1 (centres unmarked) [Compound 112]
melting point: 146 °C | IC50 [1]: 22.9 nM | IC50 [2]: > 10000 nM | IC50 [3]: 1820 nM

CCOc1ncccc1Nc1nccc(-c2cc(C#N)c3c(c2)C(C)(CO)CN3)n1 (centres unmarked) [Compound 16]
melting point: 248 °C | IC50 [1]: 3.8 nM | IC50 [2]: > 10000 nM | IC50 [3]: 245 nM

C[C@]1(CO)CNc2c(C#N)cc(-c3ccnc(Nc4cccnc4O[C@@H]4CCCOC4)n3)cc21 [Compound 27]
melting point: 149 °C | IC50 [1]: 3.6 nM | IC50 [2]: 7410 nM | IC50 [3]: 1510 nM

COc1ncc(Cl)cc1Nc1nccc(-c2cc(C#N)c3c(c2)C(C)(COCCNC2CC2)CN3)n1 (centres unmarked) [Compound 119]
melting point: 106 °C | IC50 [1]: 129 nM | IC50 [2]: 2000 nM | IC50 [3]: 1290 nM

C[C@]1(CO)CNc2c(C#N)cc(-c3ccnc(Nc4cccn(CC(O)CO)c4=O)n3)cc21 (some centres unmarked) [Compound 31i]
melting point: > 250 °C | IC50 [1]: 3.3 nM | IC50 [2]: > 10000 nM | IC50 [3]: ~5010 nM
